This note sets out measurements from ChEMBL document CHEMBL1128794, “Rational design of irreversible, pseudo-C2-symmetric hiv-1 protease inhibitors” (Bioorg Med Chem Lett, 1995).

The target of test [1] is Human immunodeficiency virus type 1 protease (Human immunodeficiency virus 1, UniProt Q72874). Kind of test: Compound was tested for the inhibition activity against HIV-1 protease.
Test [2] addresses Human immunodeficiency virus type 1 protease (Human immunodeficiency virus 1) (UniProt Q72874). Kind of test: Ratio of inactivation constant (Kina) and inhibition constant (Ki) was determined.
In test [3] the test system is SUP-T1. Kind of test: Tested for the inhibitory activity against HIV-1 in Sup T1 cell lines assessed by syncytium formation and reverse transcriptase assay. The class given is functional, cell-based. To be noted: Homo sapiens.
Test [4] deals with H9. Kind of test: Tested for the inhibitory activity against HIV-1 in H-9 cell lines assessed by syncytium formation and reverse transcriptase assay. The format is functional, cell-based. To be noted: Homo sapiens.
Test [5] addresses Human immunodeficiency virus type 1 protease (Human immunodeficiency virus 1) (UniProt Q72874). Kind of test: Rate of irreversible inactivation of HIV 1 protease by the compound was determined.
The subject of test [6] is H9. Kind of test: Tested for the inhibitory activity against HIV-1 in H-9 and Sup T1 cell lines assessed by syncytium formation and reverse transcriptase assay. The format is functional, cell-based. To be noted: Homo sapiens.
For test [7], the system named is SUP-T1. Kind of test: 50% Cytoxic value against HIV-1 in Sup T1 cell lines was evaluated. The format is functional, Homo sapiens.
Test [8] relates to H9. Kind of test: 50% Cytoxic value against HIV-1 in H-9 cell lines was evaluated. The format is functional, Homo sapiens.

The compound `CC(C)[C@H](NC(=O)OCc1ccccc1)C(=O)NC(C)[C@@H]1O[C@@H]1[C@H](Cc1ccccc1)NC(=O)[C@H](NC(=O)OCc1ccccc1)C(C)C` (some centres undefined) showed a Ki in test [1] of 4 nM. Besides, in test [2], the K inact/Ki stood at 667000 M⁻¹ s⁻¹.

As for `Cc1cn([C@H]2C[C@H](N=[N+]=[N-])[C@@H](CO)O2)c(=O)[nH]c1=O` [ZIDOVUDINE], the concentration for half-maximal inhibition (IC50) with SUP-T1 [3] and with H9 [4] was 50 nM in each case.

Regarding `CC(C)[C@H](NC(=O)OCc1ccccc1)C(=O)N[C@@H](Cc1ccccc1)[C@H](O)[C@H](O)[C@H](Cc1ccccc1)NC(=O)[C@@H](NC(=O)OCc1ccccc1)C(C)C`, the Ki in test [1] is less than 1 nM.

In test [1], `CC(C)[C@H](NC(=O)OCc1ccncc1)C(=O)NC[C@@H]1O[C@@H]1[C@H](Cc1ccccc1)NC(=O)[C@H](NC(=O)OCc1ccncc1)C(C)C` displayed a Ki of 300 nM. Further, in test [2], the K inact/Ki stood at 5670 M⁻¹ s⁻¹.

As for `CC(C)[C@H](NC(=O)OCc1ccccn1)C(=O)NC[C@@H]1O[C@@H]1[C@H](Cc1ccccc1)NC(=O)[C@H](NC(=O)OCc1ccccn1)C(C)C`, in test [1], the Ki was 11 nM. The K inact/Ki in test [2] was found to be 383000 M⁻¹ s⁻¹.

With `CC(C)[C@H](NC(=O)OCc1ccccc1)C(=O)N[C@@H](Cc1ccccc1)C1OC1[C@H](Cc1ccccc1)NC(=O)[C@@H](NC(=O)OCc1ccccc1)C(C)C` (some centres undefined), the Ki in test [1] was 75 nM.

`O=[N+]([O-])c1ccc(OCC2CO2)cc1` (centres undefined) came in with a Kina in test [5] of 0.004 min⁻¹.

For `CC(C)[C@H](NC(=O)OCc1cccnc1)C(=O)NC[C@@H]1O[C@@H]1[C@H](Cc1ccccc1)NC(=O)[C@H](NC(=O)OCc1cccnc1)C(C)C`, in test [1], the Ki worked out at 70 nM. For the same compound, the K inact/Ki in test [2] was found to be 23300 M⁻¹ s⁻¹.

For `CC(C)[C@H](NC(=O)N(C)Cc1ccccn1)C(=O)N[C@@H](Cc1ccccc1)[C@@H](O)[C@H](O)[C@H](Cc1ccccc1)NC(=O)[C@@H](NC(=O)N(C)Cc1ccccn1)C(C)C`, in test [1], the Ki was less than 1 nM.

In test [1], `CC(C)[C@H](NC(=O)N(C)Cc1ccccn1)C(=O)NC[C@@H]1O[C@@H]1[C@H](Cc1ccccc1)NC(=O)[C@H](NC(=O)N(C)Cc1ccccn1)C(C)C` had a Ki of 16 nM. Also, in test [2], the K inact/Ki was found to be 367000 M⁻¹ s⁻¹.

With `CC(C)(C)NC(=O)[C@@H]1C[C@@H]2CCCC[C@@H]2CN1C[C@@H](O)[C@H](Cc1ccccc1)NC(=O)[C@H](CC(N)=O)NC(=O)c1ccc2ccccc2n1` [SAQUINAVIR], the IC50 with SUP-T1 [3] and with H9 [4] was 20 nM throughout.

With `CC(C)[C@H](NC(=O)OCc1ccccc1)C(=O)NC[C@@H]1O[C@@H]1[C@H](Cc1ccccc1)NC(=O)[C@H](NC(=O)OCc1ccccc1)C(C)C`, the IC50 with SUP-T1 [3] and in the test with H9 [6] was 30 nM each time. The same compound had an inhibition constant Ki in test [1] of 0.1 nM. The CT50 in the test with SUP-T1 [7] and in the test with H9 [8] was greater than 100 µM in each case. Also, in test [2], the K inact/Ki was found to be 2.5e+06 M⁻¹ s⁻¹.

A word on the Ki: it is a dissociation constant, usually derived from enzyme kinetics or from competition with a known ligand. One may read the IC50 as the concentration needed to halve the response being measured. Low readings indicate inhibition by little substance, high ones a need for much substance.
